The results in this text go back to US8455497B2, “Inhibitors of aspartyl protease” (Vertex Pharmaceuticals Incorporated, priority 1999, dated 2013).

The first test concerns HIV-1 (strain IIIB). Nature of the test: Antiviral activity assay in MT4 cells (propidium iodide based). It is filed as cell-based. To be noted: Human immunodeficiency virus 1, IIIB; wild type HIV-1 virus, MT4 cells; read-out: Wildtype virus - IC50. The procedure:
Antiviral Activity Assay in MT4 Cells
Aliquots of the test compounds were serially diluted in medium (RPMI 1640, 10% fetal calf serum (FCS), and gentamycin) in 96-well plates (Costar 3598) using a Cetus Pro/Pette. Exponentially growing MT4 cells were harvested and centrifuged at 1000 rpm for 10 min in a Jouan centrifuge (model CR 4 12). Cell pellets were resuspended in fresh medium (RPMI 1640, 20% FCS, 20% IL-2, and gentamycin) to a density of 5×10^5 cells/ml. Cell aliquots were infected by the addition of HIV-1 (strain IIIB) diluted to give a viral multiplicity of infection of 100×TCID50. A similar cell aliquot was diluted with medium to provide a mock-infected control. Cell infection was allowed to proceed for 1 hr at 37° in a tissue culture incubator with humidified 5% CO2 atmosphere. After the 1 hr incubation the virus/cell suspensions were diluted 6-fold with fresh medium, and 125 μl of the cell suspension was added to each well of the plate containing pre-diluted compound. Plates were then placed in a tissue culture incubator with humidified 5% CO2 for 5 days. At the end of the incubation period, 27 μl of 5% Nonidet-40 was added to each well of the incubation plate. After thorough mixing with a Costar multitip pipetter, 60 μl of the mixture was transferred to filter-bottomed 96-well plates. The plates were analyzed in an automated assay instrument (Screen Machine, Idexx Laboratories). The assay makes use of a propidium iodide dye to estimate the DNA content of each well.
The anti-viral potency in MT-4 cells of the compounds set forth in Tables 1 and 2 was determined using the above technique.
As for `CC(C)CN(C[C@@H](O)[C@H](Cc1ccc(OCCCC(N)=O)cc1)NC(=O)O[C@H]1CO[C@H]2OCC[C@H]21)S(=O)(=O)c1ccc2c(c1)OCO2` [Compound 285, (3R,3aS,6aR)-hexahydrofuro[2,3-b]furan-3-yl (1S,2R)-1-[4-(4-amino-4-oxobutoxy)benzyl]-3-[(1,3-benzodioxol-5-ylsulfonyl)(isobutyl)amino]-2-hydroxypropylcarbamate], the IC50 was 0.01 to 0.1 µM. As to `CC(C)CN(C[C@@H](O)[C@H](Cc1ccc(OCCCC(=O)O)cc1)NC(=O)O[C@H]1CO[C@H]2OCC[C@H]21)S(=O)(=O)c1ccc2c(c1)OCO2` [Compound 339, 4-(4-{(2S,3R)-2-({[(3R,3aS,6aR)-hexahydrofuro[2,3-b]furan-3-yloxy]carbonyl}amino)-4-[(1,3-benzodioxol-5-ylsulfonyl)(isobutyl)amino]-3-hydroxybutyl}phenoxy) butanoic acid], the half-inhibitory concentration (IC50) lay within 0.01 to 0.1 µM. Still for that read-out and setting: to `CNC(=O)OCCCC(C)(C)CN(C[C@@H](O)[C@H](Cc1ccc(OCc2ccccc2)cc1)NC(=O)OC1CCOC1)S(=O)(=O)c1ccc2c(c1)OCO2` (stereo partly drawn) [Compound 362] belongs 0.01 to 0.1 µM. As to `Cc1cccc(C)c1OCC(=O)N[C@@H](Cc1ccc(OCc2ccccc2)cc1)[C@H](O)CN(CC(C)C)S(=O)(=O)c1ccc2c(c1)OCO2` [Compound 325, N-{(1S,2R)-3-[(1,3-Benzodioxol-5-ylsulfonyl)(isobutyl)amino]-1-[4-(benzyloxy)benzyl]-2-hydroxypropyl}-2-(2,6-dimethylphenoxy)acetamide], the IC50 fell in the range of 0.01 to 0.1 µM. On the same count and under the same terms, to `Cc1cc(S(=O)(=O)N(CC(C)C)C[C@@H](O)[C@H](Cc2ccc(OCc3cccc(C#N)c3)cc2)NC(=O)O[C@H]2CO[C@H]3OCC[C@H]32)ccc1O` [Compound 346] belongs 0.01 to 0.1 µM. Regarding `CNC(=O)OCCCC(C)(C)CN(C[C@@H](O)[C@H](Cc1ccc(OCc2ccccc2)cc1)NC(=O)OC1COCOC1)S(=O)(=O)c1ccc2c(c1)OCO2` [Compound 363, 1,3-Dioxan-5-yl N-((1S,2R)-1-[(4-benzyloxy)benzyl-3-[2,2-dimethyl-5-(N′-methylcarbamoyloxy)-pentyl][(3,4-methylenedioxyphenyl)sulfonyl]amino-2-hydroxypropyl) carbamate], the IC50 is 0.01 to 0.1 µM. With `Cc1cccc(C)c1OCC(=O)N[C@@H](Cc1ccc(OS(=O)(=O)c2ccc3c(c2)OCO3)cc1)[C@H](O)CN(CC(C)C)S(=O)(=O)c1ccc2c(c1)OCO2` [Compound 350, 4-((2S,3R)-4-[(1,3-benzodioxol-5-ylsulfonyl)(isobutyl)amino]-2-{[(2,6-dimethylphenoxy)acetyl]amino}-3-hydroxybutyl)phenyl 1,3-benzodioxole-5-sulfonate], the IC50 lay in the range of 0.01 to 0.1 µM.

The same test, now with this note: Human immunodeficiency virus 1, MT4, 120 h; MT-4 cells, HIV-1 strain IIIB, 5 days; read-out: IC50 (Antiviral Activity of Compounds of the Invention).
Consider `CC(C)CN(C[C@@H](O)[C@H](Cc1ccc(OCCCN2CCOCC2)cc1)NC(=O)O[C@H]1CO[C@H]2OCC[C@H]21)S(=O)(=O)c1ccc2c(c1)OCO2` [Compound 49, Bis-THF Methylenedioxybenzenesulfonamide Propylmorpholine Tethered Product], for which the 50% inhibitory concentration (IC50) lay within 0.001 to 0.01 µM. Consider `CC(C)CN(C[C@@H](O)[C@H](Cc1ccc(OCC(=O)N2CCOCC2)cc1)NC(=O)O[C@H]1CO[C@H]2OCC[C@H]21)S(=O)(=O)c1ccc2c(c1)OCO2` [Compound 50, Bis-THF Methylenedioxybenzenesulfonamide Acetylmorpholine Tethered Product], for which the IC50 was in the range of 0.01 to 0.1 µM. In the case of `COCCN(CCOC)CCOc1ccc(C[C@H](NC(=O)O[C@H]2CO[C@H]3OCC[C@H]32)[C@H](O)CN(CC(C)C)S(=O)(=O)c2ccc3c(c2)OCO3)cc1` [Compound 51, Bis-THF Methylenedioxybenzenesulfonamide Bis-Methoxyethylamine Tethered Product], the IC50 lay within 0.001 to 0.01 µM. Take `CC(C)CN(C[C@@H](O)[C@H](Cc1ccc(OCCN2CCOCC2)cc1)NC(=O)O[C@H]1CO[C@H]2OCC[C@H]21)S(=O)(=O)c1ccc2c(c1)OCO2` [Compound 48, Bis-THF Methylenedioxybenzenesulfonamide Ethylmorpholine Tethered Product]: the IC50 lay in the range of 0.001 to 0.01 µM. With `COCCN(CCOC)CCOc1ccc(C[C@H](NC(=O)OC(C)(C)C)[C@H](O)CN(CC(C)C)S(=O)(=O)c2ccc3c(c2)OCO3)cc1` [Compound 18, Boc Methylenedioxybenzenesulfonamide Bis-Methoxyethylamine Tethered Product], the IC50 fell in the range of 0.01 to 0.1 µM. For `CC(C)CN(C[C@@H](O)[C@H](Cc1ccc(OCCN2CCOCC2)cc1)NC(=O)OC(C)(C)C)S(=O)(=O)c1ccc2c(c1)OCO2` [Compound 17, Boc Methylenedioxybenzenesulfonamide Ethylmorpholine Tethered Product], the IC50 is above 0.1 µM.

Still in this test, the particulars now being: MT-4 cells, HIV-1 strain IIIB, 5 days; read-out: IC50 (Antiviral Activity of Compounds of the Invention).
Consider `CC(C)CN(CC(O)C(Cc1ccc(OCCN2CCOCC2)cc1)NC(=O)OC(C)(C)C)S(=O)(=O)c1ccc(N)cc1` (stereo not drawn) [Compound 10], for which the IC50 is above 0.1 µM.

As to `CC(C)(CCC#N)CN(CC(O)C(Cc1ccc(OCc2ccccc2)cc1)NC(=O)OC1COC2OCCC12)S(=O)(=O)c1ccc(N)cc1` (stereo not drawn) [Compound 71], the IC50 lay within 0.001 to 0.01 µM. `COCCN(CCOC)CCOc1ccc(CC(NC(=O)OC2CCOC2)C(O)CN(CC(C)(C)CCC#N)S(=O)(=O)c2ccc3c(c2)OCO3)cc1` (stereo not drawn) [Compound 69]: the IC50 was above 0.1 µM. Regarding `COCCN(CCOC)CCOc1ccc(CC(NC(=O)OC2COC3OCCC23)C(O)CN(CC(C)C)S(=O)(=O)c2cccc(N)c2)cc1` (stereo not drawn) [Compound 34], the IC50 was above 0.1 µM.

Regarding `Cc1cc(COc2ccc(CC(NC(=O)OC3COC4OCCC34)C(O)CN(CC(C)C)S(=O)(=O)c3cccc(N)c3)cc2)no1` (stereo not drawn) [Compound 35], the IC50 fell in the range of 0.01 to 0.1 µM. As for `COCCN(CCOC)CCOc1ccc(CC(NC(=O)OC(C)(C)C)C(O)CN(CC(C)(C)CCC#N)S(=O)(=O)c2ccc3c(c2)OCO3)cc1` (stereo not drawn) [Compound 68], the IC50 is above 0.1 µM. In the case of `COCCN(CCOC)CCOc1ccc(CC(NC(=O)OC2CCOC2)C(O)CN(CC(C)C)S(=O)(=O)c2cccc(N)c2)cc1` (stereo not drawn) [Compound 22, bis-THF m-aminophenylsulfonamide benzyl ether], the IC50 lay in the range of 0.01 to 0.1 µM. `CC(C)CN(CC(O)C(Cc1ccc(OCc2ccccn2)cc1)NC(=O)OC1COC2OCCC12)S(=O)(=O)c1ccc(N)cc1` (stereo not drawn) [Compound 31]: the IC50 was in the range of 0.001 to 0.01 µM. `COCCN(CCOC)CCOc1ccc(CC(NC(=O)OC2COC3OCCC23)C(O)CN(CC(C)(C)CCC#N)S(=O)(=O)c2ccc(N)cc2)cc1` (stereo not drawn) [Compound 74]: the IC50 is above 0.1 µM. On the same count and under the same terms, then `CC(C)CN(CC(O)C(Cc1ccc(OCCN2CCOCC2)cc1)NC(=O)OC(C)(C)C)S(=O)(=O)c1cccc(N)c1` (stereo not drawn) [Compound 15], with above 0.1 µM.

The test is the same for the next values; noted with them: wild type HIV-1 virus, MT4 cells; read-out: Wildtype virus - IC50.
`CC(C)CN(C[C@@H](O)[C@H](Cc1ccc(OCCc2ccncc2)cc1)NC(=O)O[C@H]1CO[C@H]2OCC[C@H]21)S(=O)(=O)c1ccc2c(c1)OCO2` [Compound 211]: the IC50 was 0.001 to 0.01 µM. With `Cc1ncsc1CCOc1ccc(C[C@H](NC(=O)O[C@H]2CO[C@H]3OCC[C@H]32)[C@H](O)CN(CC(C)C)S(=O)(=O)c2ccc3c(c2)OCO3)cc1` [Compound 213], the IC50 fell in the range of 0.001 to 0.01 µM. Take `CC(C)CN(C[C@@H](O)[C@H](Cc1ccc(OCCc2ccc(C#N)cc2)cc1)NC(=O)O[C@H]1CO[C@H]2OCC[C@H]21)S(=O)(=O)c1ccc2c(c1)OCO2` [Compound 215]: the IC50 is 0.001 to 0.01 µM. The same measure, in the same setting: to `CC(C)CN(C[C@@H](O)[C@H](Cc1ccc(OCCc2cccs2)cc1)NC(=O)O[C@H]1CO[C@H]2OCC[C@H]21)S(=O)(=O)c1ccc2c(c1)OCO2` [Compound 209] belongs 0.001 to 0.01 µM; to `CC(C)CN(C[C@@H](O)[C@H](Cc1ccc(OCCC(F)(F)F)cc1)NC(=O)O[C@H]1CO[C@H]2OCC[C@H]21)S(=O)(=O)c1ccc2c(c1)OCO2` [Compound 217], 0.001 to 0.01 µM; to `CC(C)CN(C[C@@H](O)[C@H](Cc1ccc(OCc2ccc(-c3csnn3)cc2)cc1)NC(=O)O[C@H]1CO[C@H]2OCC[C@H]21)S(=O)(=O)c1ccc2c(c1)OCO2` [Compound 374], 0.001 to 0.01 µM.

`CC(C)CN(C[C@@H](O)[C@H](Cc1ccc(OCCCC(F)(F)F)cc1)NC(=O)O[C@H]1CO[C@H]2OCC[C@H]21)S(=O)(=O)c1ccc2c(c1)OCO2` [Compound 216]: the IC50 fell in the range of 0.001 to 0.01 µM. On the same count and under the same terms, to `CC(C)CN(C[C@@H](O)[C@H](Cc1ccc(OCCCCNS(C)(=O)=O)cc1)NC(=O)O[C@H]1CO[C@H]2OCC[C@H]21)S(=O)(=O)c1ccc2c(c1)OCO2` [Compound 252] belongs 0.001 to 0.01 µM; to `CCOC(=O)NCCCCOc1ccc(C[C@H](NC(=O)O[C@H]2CO[C@H]3OCC[C@H]32)[C@H](O)CN(CC(C)C)S(=O)(=O)c2ccc3c(c2)OCO3)cc1` [Compound 247], 0.001 to 0.01 µM; to `CC(C)CN(C[C@@H](O)[C@H](Cc1ccc(OCCCNC(=O)C(C)(C)C)cc1)NC(=O)O[C@H]1CO[C@H]2OCC[C@H]21)S(=O)(=O)c1ccc2c(c1)OCO2` [Compound 232], 0.001 to 0.01 µM.
